In patent publication US10632195B2, “Pharmaceutical device for electric-field assisted administration of Tapentadol and method of administering Tapentadol with same” (Gruenenthal GmbH, priority 2012, dated 2020):
Values joined by “and” are separate entries in the source; they are usually repeats but may differ in a detail not shown here. Equal entries are not always repeated. Structures can show the parent of a compound that is named as a salt.

What was measured:
[1] = pH of the donor solution (Tapentadol hydrochloride 100 mM in water) before and after iontophoresis; format: physicochemical
Description: (§1) The anode was placed in the donor chamber; the donor solution was 3 ml of Tapentadol hydrochloride (100 mM, i.e. 25.78 mg/ml of Tapentadol hydrochloride, 22.13 mg/ml of base) in water. The cathode was placed in the receptor chamber, which contained 3 ml of phosphate-buffered saline, pH 7.4. Both chambers were stirred by magnets.
(§2) Voltages were as expected for 6 cells in series (range was 6 to 28 volts). The pH of the donor solution was measured after termination of 24 hours of iontophoresis, and ranged from 6.47 to 6.99. The pH of drug in the donor prior to commencing the experiment was 5.07 (5.34 for the 8 hour iontophoresis).

[2] = iontophoretic transdermal delivery of Tapentadol hydrochloride, 24 hours of iontophoresis (example 1b), side-bi-side diffusion cells, constant current 0.25 mA (0.4 mA/cm2), donor 100 mM in water; format: in vitro ADME, pig; conditions: for drug flux across the skin, Mean ± SD / drug flux across the skin, as tapentadol base, Mean ± SD / cumulative, iontophoretic delivery across the skin, Mean ± SD / cumulative, iontophoretic delivery across the skin, as tapentadol base, Mean ± SD: n=6; for drug flux across the skin, Mean ± SD / drug flux across the skin, as tapentadol base, Mean ± SD / cumulative, iontophoretic delivery across the skin, Mean ± SD / cumulative, iontophoretic delivery across the skin, as tapentadol base, Mean ± SD / drug flux across the skin / cumulative, iontophoretic delivery across the skin: patch area 0.64 cm^2; for drug flux across the skin / cumulative, iontophoretic delivery across the skin: single cells 1-6, hydrochloride; for cumulative, iontophoretic delivery across the skin: listed as Tapentadol HCl
Description: Determination of the rate of iontophoretic transdermal delivery of Tapentadol hydrochloride for a period of 24 hours of iontophoresis
Tapentadol hydrochloride (batch no. A0012) was employed. The components of the phosphate buffered saline (PBS) and the mobile phase used were from Sigma, UK. The pig skin was obtained from a local farm, washed with water, excess hair was carefully trimmed with scissors, and the skin was dermatomed using a Zimmer dermatome set at a nominal thickness of 750 μm. The skin was then stored at −20° C.
The drug was delivered from the anode, using side-bi-side (horizontal) glass diffusion cells (n=6) supplied by Permegear, USA. The porcine skin membrane was excised from the dorsal surface.
Electrodes were prepared in-house and were made of silver/silver chloride. To pass current for 24 hours in this set-up, it was necessary for the donor compartment to contain 76 mM chloride ions.
as §1
Current was applied for a total of 8 or 24 hours, respectively.
The receptor solution was sampled and assayed at 0.5, 1, 2, 3, 4, 5, 6, 7, 8 (example 1a) and optionally 24 hours (example 1b) post-initiation of the current. During the 8 hour experiment (example 1a), at 0.5, 1, 2, and 3 hours, 1 ml of receptor solution was removed and replaced with fresh PBS. As it was clear that the amount of Tapentadol in the receptor solution was sufficient for quantitation by HPLC, at the subsequent sampling times of 4, 5, 6, 7 and 8 hours, the entire receptor solution (3 ml) was removed and replaced with fresh PBS, to ensure sink conditions in the receptor. During the 24 hour experiment (example 1b), the entire receptor solution (3 ml) was removed and replaced with fresh PBS at every sampling point.
The concentrations of Tapentadol hydrochloride in the receptor chamber samples were determined by HPLC. A mobile phase consisting of 300:700:1 methanol:water:phosphoric acid was pumped (1 ml/min) through a Acclaim RP-18 (4×150 mm) reverse-phase column (Dionex, UK) at 35° C. Tapentadol concentrations were quantified via their UV absorbance at 215 nm using a calibration curve diluted in PBS at pH 7.4. Injection volume was 20 μl and the retention time for Tapentadol hydrochloride was 12 minutes and the total run time was 16 minutes.
A Tapentadol-free “blank” diffusion cell (donor was saline only) was also prepared and the receptor solution was analysed after 8 hours to confirm no peaks from any component of the skin co-eluted with the Tapentadol hydrochloride.
as §2

[3] = 24 hours iontophoresis, as tapentadol hydrochloride

## CC[C@@H](c1cccc(O)c1)[C@@H](C)CN(C)C [Tapentadol hydrochloride]
[1]; prior to commencing the experiment (8 hour iontophoresis)
  pH of drug in the donor: 5.34
[1]; prior to commencing the experiment (24 hour iontophoresis)
  pH of drug in the donor: 5.07
[2]; 0.5 h, iontophoresis
  drug flux across the skin, Mean ± SD: 3 ± 2 µg/h
  drug flux across the skin, as tapentadol base, Mean ± SD: 3 ± 2 µg/h
[2]; 0.5 h
  cumulative, iontophoretic delivery across the skin, Mean ± SD: 2 ± 1 µg
  cumulative, iontophoretic delivery across the skin, as tapentadol base, Mean ± SD: 1 ± 1 µg
[2]; 1 h, iontophoresis
  drug flux across the skin, Mean ± SD: 48 ± 22 µg/h
  drug flux across the skin, as tapentadol base, Mean ± SD: 41 ± 19 µg/h
[2]; 1 h
  cumulative, iontophoretic delivery across the skin, Mean ± SD: 26 ± 12 µg
  cumulative, iontophoretic delivery across the skin, as tapentadol base, Mean ± SD: 22 ± 10 µg
[2]; 1.5 h, iontophoresis
  drug flux across the skin, Mean ± SD: 96 ± 22 µg/h
  drug flux across the skin, as tapentadol base, Mean ± SD: 82 ± 19 µg/h
[2]; 1.5 h
  cumulative, iontophoretic delivery across the skin, Mean ± SD: 74 ± 22 µg
  cumulative, iontophoretic delivery across the skin, as tapentadol base, Mean ± SD: 63 ± 19 µg
[2]; 2 h, iontophoresis
  drug flux across the skin, Mean ± SD: 144 ± 38 µg/h
  drug flux across the skin, as tapentadol base, Mean ± SD: 124 ± 33 µg/h
[2]; 2 h
  cumulative, iontophoretic delivery across the skin, Mean ± SD: 146 ± 41 µg
  cumulative, iontophoretic delivery across the skin, as tapentadol base, Mean ± SD: 125 ± 35 µg
[2]; 3 h, iontophoresis
  drug flux across the skin, Mean ± SD: 176 ± 32 µg/h
  drug flux across the skin, as tapentadol base, Mean ± SD: 151 ± 28 µg/h
  drug flux across the skin: 128 µg/h and 147 µg/h and 203 µg/h and 208 µg/h and 181 µg/h and 190 µg/h
[2]; 3 h
  cumulative, iontophoretic delivery across the skin, Mean ± SD: 322 ± 72 µg
  cumulative, iontophoretic delivery across the skin, as tapentadol base, Mean ± SD: 276 ± 61 µg
  cumulative, iontophoretic delivery across the skin: 224 µg and 259 µg and 364 µg and 419 µg and 315 µg and 348 µg
[2]; 4 h, iontophoresis
  drug flux across the skin, Mean ± SD: 232 ± 27 µg/h
  drug flux across the skin, as tapentadol base, Mean ± SD: 199 ± 23 µg/h
  drug flux across the skin: 184 µg/h and 217 µg/h and 238 µg/h and 257 µg/h and 248 µg/h
[2]; 4 h
  cumulative, iontophoretic delivery across the skin, Mean ± SD: 554 ± 96 µg
  cumulative, iontophoretic delivery across the skin, as tapentadol base, Mean ± SD: 475 ± 83 µg
  cumulative, iontophoretic delivery across the skin: 408 µg and 476 µg and 602 µg and 676 µg and 563 µg and 596 µg
[2]; 5 h, iontophoresis
  drug flux across the skin, Mean ± SD: 270 ± 22 µg/h
  drug flux across the skin, as tapentadol base, Mean ± SD: 232 ± 19 µg/h
  drug flux across the skin: 227 µg/h and 271 µg/h and 283 µg/h and 285 µg/h and 284 µg/h and 272 µg/h
[2]; 5 h
  cumulative, iontophoretic delivery across the skin, Mean ± SD: 824 ± 116 µg
  cumulative, iontophoretic delivery across the skin, as tapentadol base, Mean ± SD: 707 ± 99 µg
  cumulative, iontophoretic delivery across the skin: 635 µg and 747 µg and 885 µg and 962 µg and 847 µg and 867 µg
[2]; 6 h, iontophoresis
  drug flux across the skin, Mean ± SD: 277 ± 18 µg/h
  drug flux across the skin, as tapentadol base, Mean ± SD: 238 ± 16 µg/h
  drug flux across the skin: 243 µg/h and 282 µg/h and 298 µg/h and 277 µg/h and 286 µg/h and 274 µg/h
[2]; 6 h
  cumulative, iontophoretic delivery across the skin, Mean ± SD: 1101 ± 129 µg
  cumulative, iontophoretic delivery across the skin, as tapentadol base, Mean ± SD: 945 ± 111 µg
  cumulative, iontophoretic delivery across the skin: 878 µg and 1029 µg and 1183 µg and 1239 µg and 1133 µg and 1142 µg
[2]; 7 h, iontophoresis
  drug flux across the skin, Mean ± SD: 282 ± 18 µg/h
  drug flux across the skin, as tapentadol base, Mean ± SD: 242 ± 15 µg/h
  drug flux across the skin: 248 µg/h and 292 µg/h and 282 µg/h and 295 µg/h
[2]; 7 h
  cumulative, iontophoretic delivery across the skin, Mean ± SD: 1382 ± 144 µg
  cumulative, iontophoretic delivery across the skin, as tapentadol base, Mean ± SD: 1187 ± 123 µg
  cumulative, iontophoretic delivery across the skin: 1125 µg and 1322 µg and 1465 µg and 1534 µg and 1425 µg and 1424 µg
[2]; 8 h, iontophoresis
  drug flux across the skin, Mean ± SD: 288 ± 30 µg/h
  drug flux across the skin, as tapentadol base, Mean ± SD: 247 ± 26 µg/h
  drug flux across the skin: 254 µg/h and 331 µg/h and 256 µg/h and 302 µg/h and 282 µg/h
[2]; 8 h
  cumulative, iontophoretic delivery across the skin, Mean ± SD: 1671 ± 155 µg
  cumulative, iontophoretic delivery across the skin, as tapentadol base, Mean ± SD: 1434 ± 133 µg
  cumulative, iontophoretic delivery across the skin: 1380 µg and 1653 µg and 1721 µg and 1836 µg and 1727 µg and 1706 µg
[2]; 24 h, iontophoresis
  drug flux across the skin, Mean ± SD: 309 ± 26 µg/h
  drug flux across the skin, as tapentadol base, Mean ± SD: 265 ± 23 µg/h
  drug flux across the skin: 300 µg/h and 342 µg/h and 330 µg/h and 323 µg/h and 282 µg/h and 277 µg/h
[2]; 24 h
  cumulative, iontophoretic delivery across the skin, Mean ± SD: 6616 ± 468 µg
  cumulative, iontophoretic delivery across the skin, as tapentadol base, Mean ± SD: 5680 ± 402 µg
  cumulative, iontophoretic delivery across the skin: 6185 µg and 7120 µg and 7001 µg and 7000 µg and 6247 µg and 6145 µg
[2]; 24 hours iontophoresis
  cumulative amount delivered across a 0.64 cm2 area of skin, as tapentadol base: 5.7 mg
  cumulative amount delivered per 1 cm2, as tapentadol base: 8.9 mg
[2]; [3]
  cumulative amount delivered across a 0.64 cm2 area of skin: 6.6 mg
  cumulative amount delivered per 1 cm2: 10.3 mg
[2]; example 1b, iontophoresis
  time by which steady-state flux appears to have been reached: 5 to 6 h
[2]; iontophoresis vs comparative example 1b
  difference between flux during iontophoresis and flux due to passive diffusion: 30 fold
